Test results as given in patent EP1581790B1, “PEPTIDES THAT HOME TO TUMOR LYMPHATIC VASCULATURE AND METHODS OF USING SAME” (The Burnham Institute, priority 2001, dated 2009).
Where no end group is shown, it is not given here.

Columns and labels:
[1] = test system: primary MDA-MB-435 breast carcinoma tumor cell suspensions; test: Ex vivo binding of phage to primary 435 tumor cell suspensions; parameters: species or system Human; conditions: addition of synthetic peptide
Protocol: Several ex vivo selections were performed with 435 tumor cell suspensions prepared from MDA-MB-435 breast carcinoma xenografts grown in nude mice, as described below. Anti-mouse CD31 was used to deplete the tumor cell mixture of blood vessel endothelial cells prior to rescuing phage bound to the CD31-negative cell population. By the third ex vivo round, the phage pool bound a tumor cell suspension approximately 350-fold over control, nonrecombinant phage. The ex vivo preselected phage pool then was subjected to an in vivo selection round by injection into the tail vein of a nude mouse bearing an MDA-MB-435 tumor. Phage were then rescued from harvested xenograft tumor tissue.
Xenografts, tumor cell suspensions and ex vivo selections were performed essentially as follows. Nude Balb/c mice were subcutaneously injected with 1 x 10^6 MDA-MB-435 tumor cells to generate breast carcinoma xenografts. Human MDA-MB-435 breast carcinoma xenograft tumors were harvested 9 to 12 weeks after implantation, and tumor cell suspensions prepared using collagenase (0.5 mg/ml, Sigma).
The suspension was subjected to serial washes with 1% BSA in DME to remove unbound phage. […]

[2] = test system: MDA-MB-435 tumor lymphatic vasculature; test: Localization in 435 tumors after intravenous injection, with blood vessel and lymphatic markers
[3] = test system: Cultured MDA-MB-435 cells; test: Cytotoxicity in cell culture, trypan blue staining; format: cell-based
Protocol: Cultured MDA-MB-435 cells were incubated with a control peptide (CGEKRTRGC; SEQ ID NO: 3) or with CGNKRTRGC (SEQ ID NO: 1) at 37°C for 1, 2 or 4 hours. After staining with trypan blue, which is taken up by cells that are dead or dying, the total number of cells were counted, and the percentage of trypan blue stained cells determined. […] In particular, after four hours incubation, at least 7-fold greater trypan blue uptake was evident in cell cultures incubated with peptide SEQ ID NO: 1 as compared to cultures incubated with control peptide.

[4] = test system: MDA-MB-435 human breast carcinoma cell xenografts; test: Tumor treatment study; format: in vivo, nude mice; conditions: 67 nmol intravenously twice a week; after about two weeks of treatment; Figure 8
Protocol: A tumor treatment study was performed using MDA-MB-435 human breast carcinoma cell xenografts prepared by subcutaneously injecting 1 x 10^6 cells in 200 µl PBS into nude mice. Mice (five per group) were treated intravenously twice a week with 67 nmol CGNKRTRGC peptide (SEQ ID NO: 1) or with PBS starting four weeks after tumor implantation. Tumor volumes were measured once a week for four weeks.

normal tissues = test: Localization of fluorescein-labeled peptide in normal tissues after intravenous injection; format: in vivo, mice
Protocol: Several normal tissues also were studied for localization of the CGNKRTRGC (SEQ ID NO: 1) peptide.
Detection of fluorescent peptides and biotin-conjugated tomato lectin was performed as follows. Fluorescein-conjugated peptide CGNKRTRGC (SEQ ID NO: 1) was prepared as described above. The peptide (100 µg in 200 µl of PBS) was injected into the tail vein of mice bearing MDA-MB-435 breast carcinoma tumors. After 10 minutes, biotin-conjugated lycopersicon esculentum (tomato) lectin (100 µg in 200 µl of PBS; Vector; Burlingame, California) was also injected into the tail vein. After 5 minutes, the mouse was perfused through the heart with 4% paraformaldehyde. Tissues were removed and frozen in O.C.T. embedding medium (Tissue-Tek; Torrence, California). Blood vessels were visualized by detecting the tomato lectin with streptavidin-conjugated Alexa 594 (Molecular Probes; Eugene, Oregon). Green staining indicated the presence of peptide SEQ ID NO: 1, while red staining indicated the presence of tomato lectin.

[5] = concentration of 10 µM; cited from earlier work
cultured KRIB cells = test: Internalization of fluorescein-labeled peptide by cultured KRIB cells; format: cell-based, human
[6] = test system: cultured MDA-MB-435 tumor cells; test: Internalization and subcellular localization in cultured MDA-MB-435 cells; format: cell-based, Human; conditions: one to five hours at 37°C; Figure 2
Protocol: A fluorescein-conjugated CGNKRTRGC (SEQ ID NO: 1) peptide was utilized to further analyze cellular internalization and subcellular localization. […] Natl. Acad. Sci. 97:13003 (2000). The fluorescein-conjugated peptides were incubated with cultured MDA-MB-435 tumor cells for one to five hours at 37°C. […] Cultured 435 cells also internalized the CGNKRTRGC (SEQ ID NO: 1) phage, although the phage accumulated in the cytoplasm of the cells.

CGNKRTRGC [CGNKRTRGC (SEQ ID NO: 1)]
inhibition of binding of phage displaying the same peptide sequence [1]: inhibited binding | accumulation in single cells within the tumor ([2]; fluorescein-labeled peptide): accumulated in VEGFR-3 positive single cells within the tumor | co-localization with the macrophage marker F4/80 ([2]; mouse, in vivo): lack of co-localization | trypan blue uptake relative to cultures incubated with control peptide ([3]; four hours incubation, 37°C, control peptide SEQ ID NO: 3): at least 7 fold | cytotoxic effect as compared to control peptide SEQ ID NO: 3 ([3]; later time points (1, 2 or 4 hours), Figure 7): significantly enhanced cytotoxic effect | mean tumor volume compared to mice administered PBS alone [4]: at least several fold less | fluorescence in normal tissues (normal tissues): seen only in the kidney tubuli

D(KLAKLAK)2
mitochondrial swelling [5]: marked mitochondrial swelling

fluorescein-conjugated CGNKRTRGC (SEQ ID NO: 1) peptide: Fluorescein-conjugated CGNKRTRGC (SEQ ID NO: 1) peptide (cysteine pairing not given here; also: fluorescein-conjugated)
internalization and nuclear localization in vivo ([2]; Figure 5): internalized and transported into nuclei in vivo | internalization and nuclear localization in vivo ([2]; Figure 5, listed as fluorescein-conjugated peptide (SEQ ID NO: 1)): accumulated in the nuclei lining the vessel-like structures | co-localization with blood vessels labeled with biotin-conjugated tomato lectin ([2]; Figures 3A-C): notable lack of co-localization | co-localization with lymphatic markers VEGFR-3 and LYVE-1 ([2]; intravenously injected, Figure 5): co-localized with VEGFR-3 and LYVE-1 staining in 435 tumor tissue | blood vessel markers CD31 and Meca-32 on the vessels in which the substance localized ([2]; tail vein injection): negative for the CD31 and Meca-32 blood vessel markers | localization within 435 tumor ([2]; tail vein injection): localized in vessel-like structures and in individual cells within the tumor | internalization by cultured KRIB cells (cultured KRIB cells): internalized | uptake and subcellular localization of fluorescein-conjugated peptide [6]: taken up by the 435 cells and translocated into the cell nucleus
